Literature values, collected in patent US20170007537A1, “PHARMACEUTICAL COMPOSITIONS OF ASENAPINE” (HETERO RESEARCH FOUNDATION, priority 2014, published 2017).

Conditions: when swallowed; oral tablet formulation

- absolute bioavailability: < 2%
SMILES: CN1C[C@H]2c3ccccc3Oc3ccc(Cl)cc3[C@@H]2C1.O=C(O)/C=C\C(=O)O (racemic) [asenapine, (3aRS,12bRS)-5-Chloro-2-methyl-2,3,3a,12b-tetrahydro-1Hdibenzo[2,3:6,7]oxepino[4,5-c]pyrrole(2Z)-2-butenedioate (1:1)]
